Source: ChEMBL document CHEMBL5223189, “Discovery of Selective Aldehyde Dehydrogenase Inhibitors for the Treatment of Cancer” (ACS Med Chem Lett, 2023)

Tests used:
[1] = target: T1, Aldehyde dehydrogenase 1A1 (Homo sapiens, UniProt P00352); experiment: Inhibition of full length human ALDH1A1 using propionaldehyde as substrate preincubated for 30 mins followed by substrate addition and measured after 30 mins in presence of NAD by luminescence microplate reader analysis
T1 sequence (P00352 whole entry): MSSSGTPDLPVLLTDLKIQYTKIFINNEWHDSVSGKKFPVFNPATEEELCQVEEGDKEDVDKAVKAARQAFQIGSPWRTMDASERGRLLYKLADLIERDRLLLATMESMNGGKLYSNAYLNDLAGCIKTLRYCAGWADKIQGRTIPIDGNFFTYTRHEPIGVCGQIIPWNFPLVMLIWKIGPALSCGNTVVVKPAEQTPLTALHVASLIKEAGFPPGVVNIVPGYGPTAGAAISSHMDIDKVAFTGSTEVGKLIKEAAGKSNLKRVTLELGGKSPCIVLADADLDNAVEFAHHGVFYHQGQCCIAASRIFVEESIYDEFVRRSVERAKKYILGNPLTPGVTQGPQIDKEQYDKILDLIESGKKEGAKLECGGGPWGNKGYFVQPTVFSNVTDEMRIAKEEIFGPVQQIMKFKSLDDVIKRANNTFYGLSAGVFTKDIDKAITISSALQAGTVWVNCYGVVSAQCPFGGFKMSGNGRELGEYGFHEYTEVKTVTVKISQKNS

Retinal dehydrogenase 2 = target: T2, Retinal dehydrogenase 2 (Homo sapiens, UniProt O94788); experiment: Inhibition of full length human ALDH1A2 using propionaldehyde as substrate preincubated for 30 mins followed by substrate addition and measured after 30 mins in presence of NAD by luminescence microplate reader analysis
T2 sequence (O94788 whole entry): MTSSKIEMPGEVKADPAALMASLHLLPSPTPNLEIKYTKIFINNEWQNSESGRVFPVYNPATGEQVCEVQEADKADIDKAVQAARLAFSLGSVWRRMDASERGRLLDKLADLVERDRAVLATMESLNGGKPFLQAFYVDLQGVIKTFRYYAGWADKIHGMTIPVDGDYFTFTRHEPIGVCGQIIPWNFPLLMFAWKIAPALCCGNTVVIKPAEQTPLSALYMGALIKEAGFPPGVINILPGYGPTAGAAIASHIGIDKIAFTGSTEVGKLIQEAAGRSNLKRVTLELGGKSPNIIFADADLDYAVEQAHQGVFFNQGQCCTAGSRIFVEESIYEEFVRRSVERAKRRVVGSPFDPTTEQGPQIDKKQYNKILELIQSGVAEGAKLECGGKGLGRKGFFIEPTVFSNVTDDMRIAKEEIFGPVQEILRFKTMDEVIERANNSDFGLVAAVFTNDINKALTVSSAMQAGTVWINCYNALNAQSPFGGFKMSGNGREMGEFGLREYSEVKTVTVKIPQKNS

[2] = target: T3, Retinaldehyde dehydrogenase 3 (Homo sapiens, UniProt P47895); experiment: Inhibition of human ALDH1A3 in human WM266-4 cells incubated for 60 mins using BODIPY-aminoacetaldehyde as substrate in presence of ALDEFLUOR assay buffer by Hoechst 33342 staining based cell Insight fluorescent microscopic anlaysis
T3 sequence (P47895 whole entry): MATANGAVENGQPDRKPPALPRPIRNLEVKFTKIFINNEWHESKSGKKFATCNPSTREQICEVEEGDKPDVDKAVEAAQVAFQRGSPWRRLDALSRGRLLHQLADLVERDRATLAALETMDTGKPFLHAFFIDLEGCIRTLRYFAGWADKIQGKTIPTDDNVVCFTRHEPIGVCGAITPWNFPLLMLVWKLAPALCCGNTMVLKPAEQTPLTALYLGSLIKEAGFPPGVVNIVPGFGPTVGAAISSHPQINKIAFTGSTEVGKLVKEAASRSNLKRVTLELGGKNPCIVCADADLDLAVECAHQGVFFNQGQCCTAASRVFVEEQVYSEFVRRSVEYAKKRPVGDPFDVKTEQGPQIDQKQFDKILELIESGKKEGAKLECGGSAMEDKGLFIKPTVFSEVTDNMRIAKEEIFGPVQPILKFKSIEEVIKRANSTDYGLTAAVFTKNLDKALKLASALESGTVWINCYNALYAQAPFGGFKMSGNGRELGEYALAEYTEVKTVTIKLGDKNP

[3] = target: T4, Aldehyde dehydrogenase, mitochondrial (Homo sapiens, UniProt P05091); experiment: Inhibition of full length human ALDH2 using propionaldehyde as substrate preincubated for 30 mins followed by substrate addition and measured after 30 mins in presence of NAD by luminescence microplate reader analysis
T4 sequence (P05091 whole entry): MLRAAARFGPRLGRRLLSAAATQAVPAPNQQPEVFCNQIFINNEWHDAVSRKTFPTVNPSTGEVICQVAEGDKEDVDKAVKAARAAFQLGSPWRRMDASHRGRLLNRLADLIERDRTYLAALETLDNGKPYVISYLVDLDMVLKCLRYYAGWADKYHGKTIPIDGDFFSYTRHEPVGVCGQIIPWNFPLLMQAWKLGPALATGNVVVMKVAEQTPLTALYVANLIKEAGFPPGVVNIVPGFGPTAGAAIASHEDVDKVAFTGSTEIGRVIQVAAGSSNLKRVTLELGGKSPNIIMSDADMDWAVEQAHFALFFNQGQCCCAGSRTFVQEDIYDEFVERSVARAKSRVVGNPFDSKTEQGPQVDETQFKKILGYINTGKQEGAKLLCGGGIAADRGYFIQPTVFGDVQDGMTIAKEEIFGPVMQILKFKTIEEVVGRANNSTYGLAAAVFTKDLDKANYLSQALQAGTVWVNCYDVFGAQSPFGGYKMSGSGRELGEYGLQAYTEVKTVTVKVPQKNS

[4] = target: T3, Retinaldehyde dehydrogenase 3; experiment: Inhibition of full length human ALDH1A3 using propionaldehyde as substrate preincubated for 30 mins followed by substrate addition and measured after 30 mins in presence of NAD by luminescence microplate reader analysis

SMILES	IC50 [1]	IC50 (Retinal dehydrogenase 2)	IC50 [2]	IC50 [3]	IC50 [4]
O=C1CCc2cc(NC(=O)c3sc(N4CCOCC4)nc3-c3cccc(F)c3)ccc2N1	≥ 100000 nM	≥ 100000 nM	< 100 nM	≥ 100000 nM	< 100 nM
CN(C)c1nc(-c2cccc(F)c2)c(C(=O)Nc2ccc3c(c2)CCC(=O)N3)s1	≥ 100000 nM	1000 nM	< 100 nM	≥ 100000 nM	< 100 nM
O=C1CCc2cc(OCCN3CCCC3c3cccc(F)c3)ccc2N1 (stereo not given)	≥ 100000 nM	100 nM	< 100 nM	≥ 100000 nM	< 100 nM
O=C1CCc2cc(NC(=O)c3scnc3-c3ccccc3F)ccc2N1	≥ 100000 nM	1000 nM	< 100 nM	≥ 100000 nM	< 100 nM
O=C1CCc2cc(NC(=O)c3scnc3-c3cccc(F)c3)ccc2N1	≥ 100000 nM	1000 nM	< 100 nM	≥ 100000 nM	< 100 nM
O=C1CCc2cc(NC(=O)c3sc(N4CC(O)C4)nc3-c3cccc(F)c3)ccc2N1	≥ 100000 nM	≥ 100000 nM	< 100 nM	≥ 100000 nM	< 100 nM
O=C1CCc2cc(OCCN3CCC[C@@H]3c3cccc(F)c3)ccc2N1	≥ 100000 nM	100 nM	< 100 nM	≥ 100000 nM	< 100 nM
O=C1CCc2cc(NC(=O)c3sc(N4CCNCC4)nc3-c3cccc(F)c3)ccc2N1	≥ 100000 nM	10000 nM	< 100 nM	≥ 100000 nM	< 100 nM
